Experimental data published in patent publication US9481676B2, “Azepino[4,5-B]indoles and methods of use” (Medivation Technologies, Inc., priority 2008, dated 2016).

Assays:
[1] = target: T1, human recombinant adrenergic α2B receptor (Homo sapiens, UniProt P18089); assay: Adrenergic alpha2B radioligand binding ([3H]Rauwolscine); settings: compound at 1 μM; read-out: Adrenergic (1 μM) α2B, percent inhibition of specific binding
T1 construct: expressed in transfected cells; host or cells: CHO-K1 cells
T1 sequence (P18089 1-450): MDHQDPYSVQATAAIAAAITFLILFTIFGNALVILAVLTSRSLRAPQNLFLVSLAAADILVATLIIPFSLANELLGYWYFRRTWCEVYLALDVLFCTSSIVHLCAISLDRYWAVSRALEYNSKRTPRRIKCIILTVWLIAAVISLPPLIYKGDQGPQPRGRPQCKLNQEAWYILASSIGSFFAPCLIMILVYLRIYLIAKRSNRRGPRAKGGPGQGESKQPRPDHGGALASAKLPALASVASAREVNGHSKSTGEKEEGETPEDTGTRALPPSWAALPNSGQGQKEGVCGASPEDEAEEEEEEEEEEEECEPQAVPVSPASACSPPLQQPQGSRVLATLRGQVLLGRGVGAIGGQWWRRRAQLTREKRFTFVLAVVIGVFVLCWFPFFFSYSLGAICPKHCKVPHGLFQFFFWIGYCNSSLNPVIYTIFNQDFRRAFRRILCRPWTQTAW
Outline: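 CHO-K1-expressed receptor in Tris-HCl pH 7.4 with MgCl2, EDTA, BSA, incubated 60 min at 25° C with 2.5 nM [3H]Rauwolscine; 10 μM prazosin defines non-specific binding.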

[2] = target: T2, human recombinant histamine H2 receptor (Homo sapiens, UniProt P25021); assay: Histamine H2 radioligand binding ([125I]Aminopotentidine); settings: compound at 1 μM; read-out: Histamine Binding (1 μM) H2, percent inhibition of specific binding
T2 construct: expressed in transfected cells; host or cells: CHO-K1 cells
Outline: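 Membranes from CHO-K1 cells expressing recombinant human H2 receptor, in 50 mM phosphate buffer pH 7.4, incubated with 0.1 nM [125I]aminopotentidine for 120 min at 25 °C; nonspecific binding defined with 3 μM tiotidine.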

[3] = target: T3, human recombinant serotonin (5-Hydroxytryptamine) 5-HT6 receptor (Homo sapiens, UniProt P50406); assay: Serotonin 5-HT6 radioligand binding ([3H]LSD); settings: compound at 1 μM; read-out: Serotonin (1 μM) 5-HT6, percent inhibition of specific binding
T3 construct: expressed in transfected cells; host or cells: human HeLa cells
Outline: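 Human recombinant 5-HT6 receptor from HeLa cells incubated with 1.5 nM [3H]LSD for 120 min at 37° C in 50 mM Tris-HCl pH 7.4, 150 mM NaCl, 2 mM ascorbic acid, 0.001% BSA. Nonspecific binding defined with 5 μM serotonin; bound ligand counted after filtration.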

[4] = target: T4, human recombinant adrenergic α1D receptor (Homo sapiens, UniProt P25100); assay: Adrenergic alpha1D radioligand binding ([3H]Prozosin); settings: compound at 1 μM; read-out: Adrenergic (1 μM) α1D, percent inhibition of specific binding
T4 construct: expressed in transfected cells; host or cells: HEK-293 cells
T4 sequence (P25100 1-572): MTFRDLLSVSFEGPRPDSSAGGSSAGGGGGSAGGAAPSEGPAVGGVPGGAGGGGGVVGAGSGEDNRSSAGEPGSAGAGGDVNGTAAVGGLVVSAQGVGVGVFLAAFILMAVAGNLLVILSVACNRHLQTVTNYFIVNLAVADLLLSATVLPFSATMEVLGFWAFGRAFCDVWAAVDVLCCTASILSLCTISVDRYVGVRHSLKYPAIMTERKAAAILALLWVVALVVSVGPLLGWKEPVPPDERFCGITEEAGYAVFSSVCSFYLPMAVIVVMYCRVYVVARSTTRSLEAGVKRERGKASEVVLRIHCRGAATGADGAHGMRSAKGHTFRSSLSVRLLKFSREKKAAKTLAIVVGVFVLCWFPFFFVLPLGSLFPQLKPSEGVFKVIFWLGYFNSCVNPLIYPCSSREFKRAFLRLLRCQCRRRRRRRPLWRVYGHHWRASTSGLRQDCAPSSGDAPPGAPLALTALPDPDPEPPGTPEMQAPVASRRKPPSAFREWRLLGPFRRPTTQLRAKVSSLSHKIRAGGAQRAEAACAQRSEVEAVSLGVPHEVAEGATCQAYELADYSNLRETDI
Outline: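 Membranes from HEK-293 cells expressing the human receptor in 50 mM Tris-HCl pH 7.4 were incubated 60 min at 25 °C with 0.6 nM [3H]prazosin. Nonspecific binding was defined with 10 μM phentolamine, and bound ligand measured by filtration.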

T3 sequence (P50406 whole entry): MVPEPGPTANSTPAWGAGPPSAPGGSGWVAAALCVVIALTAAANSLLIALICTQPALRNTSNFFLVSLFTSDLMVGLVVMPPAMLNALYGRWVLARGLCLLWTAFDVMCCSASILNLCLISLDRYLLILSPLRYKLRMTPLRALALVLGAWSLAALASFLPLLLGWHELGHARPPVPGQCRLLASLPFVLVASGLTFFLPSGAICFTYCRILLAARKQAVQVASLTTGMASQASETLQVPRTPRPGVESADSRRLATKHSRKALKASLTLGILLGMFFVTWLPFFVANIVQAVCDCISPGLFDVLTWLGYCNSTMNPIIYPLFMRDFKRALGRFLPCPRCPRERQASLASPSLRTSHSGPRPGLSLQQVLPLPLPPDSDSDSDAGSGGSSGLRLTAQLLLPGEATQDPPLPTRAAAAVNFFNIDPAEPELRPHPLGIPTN
T2 sequence (P25021 whole entry): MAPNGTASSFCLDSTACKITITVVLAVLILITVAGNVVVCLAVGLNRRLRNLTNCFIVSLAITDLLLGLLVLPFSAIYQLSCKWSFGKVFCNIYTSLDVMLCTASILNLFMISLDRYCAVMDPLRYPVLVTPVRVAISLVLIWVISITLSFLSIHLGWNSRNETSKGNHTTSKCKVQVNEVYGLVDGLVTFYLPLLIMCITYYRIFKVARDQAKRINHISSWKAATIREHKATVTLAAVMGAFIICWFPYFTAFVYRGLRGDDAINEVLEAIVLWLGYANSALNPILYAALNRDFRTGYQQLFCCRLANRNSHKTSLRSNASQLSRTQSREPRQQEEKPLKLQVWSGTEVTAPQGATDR

| SMILES | inhibition at 1 µM [1] | inhibition at 1 µM [2] | inhibition at 1 µM [3] | inhibition at 1 µM [4] |
| --- | --- | --- | --- | --- |
| CN1CCc2c(n(CCc3ccc(C(F)(F)F)nc3)c3ccc(Cl)cc23)CC1 [Compound No. 1, 9-chloro-6-(2-(6-(trifluoromethyl)pyridin-3-yl)ethyl)-1,2,3,4,5,6-hexahydro-3-methylazepino[4,5-b]indole] | 107% | 58% | 86% | 90% |
| C/C(=C\n1c2c(c3cc(Cl)ccc31)CCN(C)CC2)c1ccc(F)cc1 [Compound No. 2, 9-chloro-6-((E)-2-(4-fluorophenyl)prop-1-enyl)-1,2,3,4,5,6-hexahydro-3-methylazepino[4,5-b]indole] | 111% | 105% | 103% | 100% |
| Cc1cncc(CCn2c3c(c4cc(Cl)ccc42)CCN(C)CC3)c1 [Compound No. 3, 9-chloro-3-methyl-6-(2-(5-methylpyridin-3-yl)ethyl)-1,2,3,4,5,6-hexahydroazepino[4,5-b]indole] | 112% | 82% | 92% | 89% |
| CC1CCN(C(=O)Cn2c3c(c4cc(Cl)ccc42)CCN(C)CC3)CC1 [Compound No. 76, 2-(9-chloro-2,3,4,5-tetrahydro-3-methylazepino[4,5-b]indol-6(1H)-yl)-1-(4-methylpiperidin-1-yl)ethanone] | 31% | 19% | 39% | 37% |
| COc1ccc(C(O)Cn2c3c(c4cc(Cl)ccc42)CCN(C)CC3)cc1OC (stereo not drawn) [Compound No. 77, 2-(9-chloro-2,3,4,5-tetrahydro-3-methylazepino[4,5-b]indol-6(1H)-yl)-1-(3,4-dimethoxyphenyl)ethanol] | 113% | 37% | 33% | 81% |
| COc1ccc(/C=C/n2c3c(c4cc(Cl)ccc42)CCN(C)CC3)cc1 [Compound No. 78, 6-(4-methoxystyryl)-9-chloro-1,2,3,4,5,6-hexahydro-3-methylazepino[4,5-b]indole] | 111% | 91% | 91% | 102% |
| Cc1ccc2c(c1)c1c(n2CC(=O)Nc2ccccc2)CCN(C)CC1 [Compound No. 79, 2-(2,3,4,5-tetrahydro-3,9-dimethylazepino[4,5-b]indol-6(1H)-yl)-N-phenylacetamide] | 20% | 0% | -7% | -6% |
| C=C(Cn1c2c(c3cc(Cl)ccc31)CCN(C)CC2)c1ccc(F)cc1 [Compound No. 82, 9-chloro-6-(2-(4-fluorophenyl)allyl)-3-methyl-1,2,3,4,5,6-hexahydroazepino[4,5-b]indole] | 91% | 95% | 104% | 96% |
| CN1CCc2c(n(/C=C/c3ccccc3F)c3ccc(Cl)cc23)CC1 [Compound No. 83, (E)-9-chloro-6-(2-fluorostyryl)-3-methyl-1,2,3,4,5,6-hexahydro azepino[4,5-b]indole] | 113% | 98% | 103% | 93% |
| C/C(=C/n1c2c(c3cc(Cl)ccc31)CCN(C)CC2)c1ccc(Cl)cc1Cl [Compound No. 152, (Z)-9-chloro-6-(2-(2,4-dichlorophenyl)prop-1-enyl)-1,2,3,4,5,6-hexahydro-3-methylazepino[4,5-b]indole] | 88% | 86% | 73% | 47% |
| COc1ccc(/C=C/n2c3c(c4cc(Cl)ccc42)CCN(C)CC3)cc1F [Compound No. 158, (E)-6-(3-fluoro-4-methoxystyryl)-9-chloro-1,2,3,4,5,6-hexahydro-3-methylazepino[4,5-b]indole] | 109% | 89% | 93% | 98% |
| C/C(=C/n1c2c(c3cc(C)ccc31)CCN(C)CC2)c1ccc(Cl)cc1Cl [Compound No. 174, (Z)-6-(2-(2,4-dichlorophenyl)prop-1-enyl)-1,2,3,4,5,6-hexahydro-3,9-dimethylazepino[4,5-b]indole] | 105% | 99% | 100% | 89% |
| COc1ccc(/C=C/n2c3c(c4cc(C)ccc42)CCN(C)CC3)cc1F [Compound No. 180, (E)-6-(3-fluoro-4-methoxystyryl)-1,2,3,4,5,6-hexahydro-3,9-dimethylazepino[4,5-b]indole] | 103% | 77% | 95% | 98% |
| Cc1ccc2c(c1)c1c(n2CC(=O)N2CCNCC2)CCN(C)CC1 [Compound No. 224, 2-(3,9-dimethyl-2,3,4,5-tetrahydroazepino[4,5-b]indol-6(1H)-yl)-1-(piperazin-1-yl)ethanone] | -6% | -4% | -4% | 19% |
| Cc1ccc2c(c1)c1c(n2CC(=O)N2CCC(C)CC2)CCN(C)CC1 [Compound No. 225, 2-(3,9-dimethyl-2,3,4,5-tetrahydroazepino[4,5-b]indol-6(1H)-yl)-1-(4-methylpiperidin-1-yl)ethanone] | 13% | 6% | 16% | 34% |
| COc1ccc(/C=C/n2c3c(c4cc(Cl)ccc42)CCN(C)CC3)cc1OC [Compound No. 226, (E)-9-chloro-6-(3,4-dimethoxystyryl)-3-methyl-1,2,3,4,5,6-hexahydroazepino[4,5-b]indole] | 102% | 39% | 36% | 83% |
| COc1ccc(C(O)Cn2c3c(c4cc(C)ccc42)CCN(C)CC3)cc1OC (stereo not drawn) [Compound No. 227, 1-(3,4-dimethoxyphenyl)-2-(3,9-dimethyl-2,3,4,5-tetrahydroazepino[4,5-b]indol-6(1H)-yl)ethanol] | 98% | 19% | 30% | 73% |
| CN1CCc2c(n(/C=C/c3ccccc3)c3ccc(Cl)cc23)CC1 [Compound No. 228, (E)-9-chloro-3-methyl-6-styryl-1,2,3,4,5,6-hexahydroazepino[4,5-b]indole] | 110% | 97% | 104% | 98% |
